# In patent US8088805B2, “Inhibitors of histone deacetylase” (MethylGene Inc., priority 2004, dated 2012):
# Experiments:
# SW48 colon cancer cells = assay: Human tumor xenograft in vivo, SW48; settings: Mus musculus, 30 mg/kg ip, mice, read-out: % Inhibition (relative to vehicle control) SW48
# Method: (§1) Eight to ten week old female BCD1 mice (Taconic Labs, Great Barrington, N.Y.) were injected subcutaneously in the flank area with 2×10^6 preconditioned HCT116 human colorectal carcinoma cells, SW48 colon cancer cells, and A549 lung cancer cells. Preconditioning of these cells was done by a minimum of three consecutive tumor transplantations in the same strain of nude mice. Subsequently, tumor fragments of approximately 30 mgs were excised and implanted subcutaneously in mice, in the left flank area, under Forene anesthesia (Abbott Labs, Geneva, Switzerland). When the tumors reached a mean volume of 100 mm^3, the mice were treated intraperitoneally by daily injection, with a solution of the histone deacetylase inhibitor in DMSO, at a starting dose of 10 mg/kg. The optimal dose of the HDAC inhibitor was established by dose response experiments according to standard protocols. Tumor volume was calculated every second day post infusion according to standard methods (e.g., Meyer et al., Int. J. Cancer 43: 851-856 (1989)).
# [1] = tested on: HCT116 human colorectal carcinoma cells; assay: Human tumor xenograft in vivo, HCT116; settings: Mus musculus, HCT-116; 30 mg/kg ip, mice; read-out: % Inhibition (relative to vehicle control) HCT116
# Method: as §1
# A549 lung cancer cells = assay: Human tumor xenograft in vivo, A549; settings: 30 mg/kg ip, mice
# Method: as §1
# Human HDAC-1 = Human HDAC-1 (Homo sapiens, UniProt Q13547); assay: HDAC-1 enzymatic inhibition, Assay 2 (Boc-Lys(Ac)-AMC, Fluor-de-Lys); type: biochemical; settings: Assay 2: Boc-Lys(Ac)-AMC substrate, fluorescence; read-out: HDAC1 IC50
# Sequence of Human HDAC-1 (Q13547 whole entry): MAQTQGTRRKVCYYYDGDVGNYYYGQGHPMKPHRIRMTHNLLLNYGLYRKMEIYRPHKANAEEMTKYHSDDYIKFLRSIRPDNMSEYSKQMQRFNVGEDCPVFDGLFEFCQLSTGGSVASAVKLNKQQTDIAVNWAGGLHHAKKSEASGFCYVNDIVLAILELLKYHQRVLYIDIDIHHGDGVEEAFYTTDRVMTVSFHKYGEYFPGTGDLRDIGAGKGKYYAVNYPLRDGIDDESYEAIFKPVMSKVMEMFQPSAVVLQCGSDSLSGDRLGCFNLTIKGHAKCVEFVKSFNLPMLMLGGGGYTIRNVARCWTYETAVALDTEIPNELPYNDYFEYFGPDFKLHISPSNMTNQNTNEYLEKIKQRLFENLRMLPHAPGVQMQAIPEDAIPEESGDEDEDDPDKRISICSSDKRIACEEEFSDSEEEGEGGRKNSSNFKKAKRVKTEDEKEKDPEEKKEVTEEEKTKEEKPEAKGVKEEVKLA
# Method: Assay 2. The following protocol was also used to assay the compounds of the invention. In the assay, the buffer used was 25 mM HEPES, pH 8.0, 137 mM NaCl, 2.7 mM KCl, 1 mM MgCl2 and the substrate was Boc-Lys(Ac)-AMC in a 50 mM stock solution in DMSO. The enzyme stock solution was 4.08 μg/mL in buffer. The compounds were pre-incubated (2 μl in DMSO diluted to 13 μl in buffer for transfer to assay plate) with enzyme (20 μl of 4.08 μg/ml) for 10 minutes at room temperature (35 μl pre-incubation volume). The mixture was pre-incubated for 5 minutes at room temperature. The reaction was started by bringing the temperature to 37° C. and adding […] substrate. Total reaction volume was 50 μl. The reaction was stopped after 20 minutes by addition of 50 μl developer, prepared as directed by Biomol (Fluor-de-Lys developer, Cat. # KI-105). A plate was incubated in the dark for 10 minutes at room temperature before reading (λEx=360 nm, λEm=470 nm, Cutoff filter at 435 nm).
# Assay 1 was used to measure HDAC activity of compounds 10c, 13e, 16d, 26b, 44, 47, 61a, 61b, 63, 134, 138, and 308. Assay 2 was used to measure HDAC activity of compounds 361, 366, 367, 368, 369, 370, 371, 372, 373, 374, 375, 376, 377, and 378. In Table 14, “a” indicates activity of ≦0.1 μM, “b” indicates activity of ≦1 μM, “c” indicates activity of ≦5 μM, and “d” indicates activity of >5 μm. For the H4-Ac T24 EC vs. MS-275 assay in Table 14, “u” indicates less than 1, “v” indicates 1, and “w” indicates greater than 1. For the H3 Ac t24 assay in Table 14, “x” indicates activity of ≦1 μM, “y” indicates activity of ≦10 μM, and “z” indicates activity of ≦20 μM.
# [2] = tested on: Histone H3 acetylation in T24 human bladder cancer cells; assay: Histone H3 acetylation assay; type: cell-based; settings: T-24, 16 h, concentration giving 50% of Emax of MS-275, read-out: H3 Ac t24
# Method: T24 human bladder cancer cells growing in culture are incubated with HDAC inhibitors for 16 h. Cell viability is determined by adding 10 μl Alamar Blue (BioSource, DAL1100). Cells are washed once with PBS and fixed with methanol precooled to −20° C. for 10 min. The cells are then washed twice in PBS. The fixed cells are blocked with 50 μl of PBS+0.1% Triton X-100. Cells are probed with rabbit-anti-acetyl-H3 (Upstate #06-599) as the primary antibody and then with goat-anti-rabbit-HRP (Sigma #A-0545) as the secondary antibody. Fluorescence is read by fluorometer at Ex:550, Em:610, Cutoff:590 (Auto PMT, 15 reads/well) after addition of Amplex-Red. Fluorescence signal is normalized against cell viability derived from Alamar Blue. Maximum acetylation signal of MS-275 (fluorescence unit) is measured as Emax. The concentration of compound which gives 50% of Emax is EC50. In Table 14, “x” indicates activity of ≦1 μM, “y” indicates activity of ≦10 μM, and “z” indicates activity of ≦20 μM.
# HCT116 cells = assay: MTT assay; type: cell-based; settings: Homo sapiens, HCT-116, 72 hours
# Method: HCT116 cells (2000/well) were plated into 96-well tissue culture plates one day before compound treatment. Compounds at various concentrations were added to the cells. The cells were incubated for 72 hours at 37° C. in 5% CO2 incubator. MTT (3-[4,5-dimethylthiazol-2-yl]-2,5diphenyl tetrazolium bromide, Sigma) was added at a final concentration of 0.5 mg/ml and incubated with the cells for 4 hours before one volume of solubilization buffer (50% N,N-dimethylformamide, 20% SDS, pH 4.7) was added onto the cultured cells. After overnight incubation, solubilized dye was quantified by colorimetric reading at 570 nM using a reference at 630 nM using an MR700 plate reader (Dynatech Laboratories Inc.). OD values were converted to cell numbers according to a standard growth curve of the relevant cell line. The concentration which reduces cell numbers to 50% of that of solvent treated cells is determined as MTT IC50. In Table 14, “a” indicates activity of ≦0.1 μM, “b” indicates activity of ≦1 μM, and “c” indicates activity of ≦5 μM.
Compound,inhibition in vivo at 30 mg/kg (SW48 colon cancer cells) [%],inhibition in vivo at 30 mg/kg [1] [%],% Inhibition (relative to vehicle control) A549 (A549 lung cancer cells) [%],IC50 (Human HDAC-1) [nM],EC50 [2] [nM],IC50 (HCT116 cells) [nM]
"Nc1ccccc1NC(=O)c1ccc(CNc2nccc(-c3nccs3)n2)cc1 [26c, N-(2-Amino-phenyl)-4-[(4-thiazol-2-yl-pyrimidin-2-ylamino)-methyl]-benzamide]",89.5,88,–,–,–,–
"CN(C)C(=O)c1ccc(-c2ccnc(NCc3ccc(C(=O)Nc4ccccc4N)cc3)n2)cn1 [29a, 5-{2-[4-(2-Amino-phenylcarbamoyl)-benzylamino]-pyrimidin-4-yl}-pyridine-2-carboxylic acid dimethylamide]",70.2,–,31.8,–,–,–
"Nc1ccccc1NC(=O)c1ccc(CNc2nccc(-c3ccncc3)n2)cc1 [31b, N-(2-Amino-phenyl)-4-[(4-pyridin-4-yl-pyrimidin-2-ylamino)-methyl]-benzamide]",47.8,39.4,–,–,–,–
"Nc1ccccc1NC(=O)c1ccc(CNc2nccc(-c3ccc(N4CCOCC4)nc3)n2)cc1 [34a, N-(2-Amino-phenyl)-4-{[4-(6-morpholin-4-yl-pyridin-3-yl)-pyrimidin-2-ylamino]-methyl}-benzamide]",25.5,–,67.1,–,–,–
"COCOC(C)(C)c1ccc(-c2ccnc(NCc3ccc(C(=O)Nc4ccccc4N)cc3)n2)cn1 [58b, N-(2-Amino-phenyl)-4-({4-[6-(1-methoxymethoxy-1-methyl-ethyl)-pyridin-3-yl]-pyrimidin-2-ylamino}-methyl)-benzamide]",34.6,29.4,–,–,–,–
"CC(=O)Nc1ccc(NCc2ccc(C(=O)Nc3ccccc3N)cc2)cn1 [212f, 4-[(6-Acetylamino-pyridin-3-ylamino)-methyl]-N-(2-amino-phenyl)-benzamide]",32.7,65.7,–,–,–,–
"COc1ccc(NCc2ccc(C(=O)Nc3ccccc3N)cc2)cc1F [212h, N-(2-Amino-phenyl)-4-[(3-fluoro-4-methoxy-phenylamino)-methyl]-benzamide]",44,–,54.4,–,–,–
"CN(C)CC(=O)Nc1ccc2nc(SCc3ccc(C(=O)Nc4ccccc4N)cc3)sc2c1 [compound 158, N-(2-Amino-phenyl)-4-[6-(2-dimethylamino-acetylamino)-benzothiazol-2-ylsulfanylmethyl]-benzamide]",43.2,–,42.6,–,–,–
"Nc1ccccc1NC(=O)c1ccc(CSc2nc3cc(F)c(F)cc3[nH]2)cc1 [compound 194, N-(2-Amino-phenyl)-4-(5,6-difluoro-1H-benzoimidazol-2-ylsulfanylmethyl)-benzamide]",23.1,54.5,–,–,–,–
"Cn1cnc2cc(NCc3ccc(C(=O)Nc4ccccc4N)cc3)ccc21 [compound 252, N-(2-Amino-phenyl)-4-[(1-methyl-1H-benzoimidazol-5-ylamino)-methyl]-benzamide]",25.9,70.6,–,–,–,–
"CCC(=O)Nc1sc(Cc2ccc(C(=O)Nc3ccccc3N)cc2)cc1C(N)=O [compound 296, 5-[4-(2-Amino-phenylcarbamoyl)-benzyl]-2-propionylamino thiophene-3-carboxylic acid amide]",53.4,63.9,–,–,–,–
"Nc1ccccc1NC(=O)c1ccc(N2CC[C@H](Nc3cccnc3)C2)cc1 [compound 361, (S)—N-(2-Aminophenyl)-4-(3-(pyridin-3-ylamino)pyrrolidin-1-yl)benzamide]",–,–,–,≤ 100,≤ 10000,100 to 1000
"Nc1ccccc1NC(=O)c1ccc(N2CC[C@@H](Nc3cccnc3)C2)cc1 [compound 366, (R)—N-(2-Aminophenyl)-4-(3-(pyridin-3-ylamino)pyrrolidin-1-yl)benzamide]",–,–,–,100 to 1000,≤ 20000,1000 to 5000
"Nc1ccccc1NC(=O)c1ccc(N2CC[C@H](Oc3cccnc3)C2)cc1 [compound 367, (S)—N-(2-Aminophenyl)-4-(3-(pyridin-3-yloxy)pyrrolidin-1-yl)benzamide]",–,–,–,100 to 1000,≤ 10000,100 to 1000
"Nc1ccccc1NC(=O)c1ccc(N2CC[C@H](Nc3ccccc3)C2)cc1 [compound 369, (S)—N-(2-Aminophenyl)-4-(3-(phenylamino)pyrrolidin-1-yl)benzamide]",–,–,–,100 to 1000,≤ 1000,100 to 1000
"COc1cc(O[C@H]2CCN(c3ccc(C(=O)Nc4ccccc4N)cc3)C2)cc(OC)c1OC [compound 374, (S)—N-(2-Aminophenyl)-4-(3-(3,4,5-trimethoxyphenoxy)pyrrolidin-1-yl)benzamide]",–,–,–,≤ 100,≤ 1000,100 to 1000
"Nc1ccccc1NC(=O)c1ccc(N2CC[C@H](Oc3ccc4c(c3)OCO4)C2)cc1 [compound 375, (S)—N-(2-Aminophenyl)-4-(3-(benzo[d][1,3]dioxol-5-yloxy)pyrrolidin-1-yl)benzamide]",–,–,–,≤ 100,≤ 1000,> 5000
"Nc1ccccc1NC(=O)c1ccc(N2CC[C@H](Sc3ccccn3)C2)cc1 [compound 378, (S)—N-(2-Aminophenyl)-4-(3-(pyridin-2-ylthio)pyrrolidin-1-yl)benzamide]",–,–,–,100 to 1000,≤ 10000,100 to 1000
